“And” between values parts separate entries of the source, which are not always exact repeats. Equal entries are not always repeated. Inconclusive results and toxic doses are left out. How the source made its calls: active means survival T/C of 150% or more; inactive means T/C below 125% in these data. Numbered stars: 1 amine (or outer) side, 2 acyl side, 3 side chain; on linkers, the order of the positions; unused ones are H or OH. Bridge positions count the residues as written; N and C are the ends. Square brackets hold non-standard residues; d marks the D form. Peptide text beside a SMILES is read from it. I, II: the chains in the order shown. Actinocin(1to9) = Cc1c2oc3c(C)ccc(C(=O)[*:2])c3nc-2c(C(=O)[*:1])c(N)c1=O; Hyp = O=C(O)[CH]1C[CH](O)CN1; NMeV = CN[CH](C(=O)O)C(C)C; Sar = CNCC(=O)O
Tested on: P388 leukemia ip, CD2F1 mice, survival T/C
Assay: NCI In Vivo Anticancer Drug Screen. Data for tumor model P388 Leukemia (intraperitoneal) in CD2F1 (CDF1) mice
Settings: endpoint: median survival time, higher = longer survival
Procedure, shortened: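 Mice carrying the transplanted tumor received test compound or vehicle. Survival was recorded in each group, and the value is the treated-group measurement divided by that of the vehicle-treated control group.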

[1] = dose: 25.0 mg/kg/injection, schedule: Q01DX009 (ip), vehicle: saline with Tween-80
[2] = dose: 50.0 mg/kg/injection, schedule: Q01DX009 (ip), vehicle: saline with Tween-80
[3] = dose: 60.0 mg/kg/injection, schedule: Q01DX005 (ip), vehicle: saline with Tween-80
[4] = dose: 120.0 mg/kg/injection, schedule: Q01DX005 (ip), vehicle: saline with Tween-80
[5] = dose: 240.0 mg/kg/injection, schedule: Q01DX005 (ip), vehicle: saline with Tween-80
[6] = dose: 100.0 mg/kg/injection, schedule: Q01DX009 (ip), vehicle: saline with Tween-80
[7] = dose: 200.0 mg/kg/injection, schedule: Q01DX009 (ip), vehicle: saline with Tween-80
[8] = dose: 12.5 mg/kg/injection, schedule: Q01DX009 (ip), vehicle: Klucel (hydroxypropylcellulose) (HPC)
[9] = dose: 25.0 mg/kg/injection, schedule: Q01DX009 (ip), vehicle: Klucel (hydroxypropylcellulose) (HPC)
[10] = dose: 50.0 mg/kg/injection, schedule: Q01DX009 (ip), vehicle: Klucel (hydroxypropylcellulose) (HPC)
[11] = dose: 100.0 mg/kg/injection, schedule: Q01DX009 (ip), vehicle: Klucel (hydroxypropylcellulose) (HPC)
[12] = dose: 200.0 mg/kg/injection, schedule: Q01DX009 (ip), vehicle: Klucel (hydroxypropylcellulose) (HPC)
[13] = dose: 100.0 mg/kg/injection, schedule: Q04DX003 (ip), vehicle: saline with Tween-80
[14] = dose: 200.0 mg/kg/injection, schedule: Q04DX003 (ip), vehicle: saline with Tween-80
[15] = dose: 50.0 mg/kg/injection, schedule: Q01DX005 (ip), vehicle: saline with Tween-80
[16] = dose: 50.0 mg/kg/injection, schedule: Q01DX009 (ip), vehicle: saline

Measured: T/C

COc1cccc2c1C(=O)c1c(O)c3c(c(O)c1C2=O)C[C@@](O)(/C(C)=N/NC(=O)c1ccc(Cl)c(Cl)c1)C[C@@H]3OC1CC(N)C(O)C(C)O1 (stereo not given in full)
active: dose: 0.5 mg/kg/injection, schedule: Q01DX009 (ip), vehicle: water 157 % of control | dose: 1.0 mg/kg/injection, schedule: Q01DX009 (ip), vehicle: water 166 % of control | dose: 2.0 mg/kg/injection, schedule: Q01DX009 (ip), vehicle: water 155 % of control and 175 % of control | dose: 4.0 mg/kg/injection, schedule: Q01DX009 (ip), vehicle: water 163 % of control | dose: 5.0 mg/kg/injection, schedule: Q01DX001 (ip), vehicle: water 159 % of control | dose: 10.0 mg/kg/injection, schedule: Q01DX001 (ip), vehicle: water 168 % of control
inactive: dose: 0.12 mg/kg/injection, schedule: Q01DX009 (ip), vehicle: water 117 % of control | dose: 20.0 mg/kg/injection, schedule: Q01DX001 (ip), vehicle: water 123 % of control

C=C1C[C@@H](O)[C@H](O)[C@@]2(C)C[C@@H]3OC(=O)C(=C)[C@@H]3C[C@H]12
inactive: dose: 3.12 mg/kg/injection, schedule: Q01DX009 (ip), vehicle: saline 103 % of control | dose: 6.25 mg/kg/injection, schedule: Q01DX009 (ip), vehicle: saline 104 % of control and 119 % of control | dose: 12.5 mg/kg/injection, schedule: Q01DX009 (ip), vehicle: saline 104 % of control and 113 % of control | dose: 25.0 mg/kg/injection, schedule: Q01DX009 (ip), vehicle: saline 122 % of control

CCCCCCCCCCCCCCCC[N+](C)(C)CCNC(C)=O
inactive: dose: 12.5 mg/kg/injection, schedule: Q01DX009 (ip), vehicle: saline with Tween-80 100 % of control | [1] 102 % of control | [2] 90 % of control

Cc1cc2c(=O)c(C(=O)O)c[nH]c2cc1-n1cccc1
inactive: [3] 97 % of control | [4] 100 % of control | [5] 102 % of control

O=C(O)C1CSC2(CCCC2)N1 (stereo not given)
inactive: dose: 100.0 mg/kg/injection, schedule: Q04DX003 (ip), vehicle: saline 101 % of control | dose: 200.0 mg/kg/injection, schedule: Q04DX003 (ip), vehicle: saline 98 % of control | dose: 400.0 mg/kg/injection, schedule: Q04DX003 (ip), vehicle: saline 98 % of control

CCC(C)(C)C(=O)Nc1cccc(OC(=O)NC)c1
inactive: [1] 100 % of control | [2] 92 % of control | [6] 101 % of control

O=C(Cc1ccc(OCc2ccccc2)cc1)OCc1ccco1
inactive: [2] 109 % of control | [6] 100 % of control | [7] 100 % of control

O=c1ccn(C2OC(CO)C(O)C2Cl)c(=O)[nH]1 (stereo not given)
inactive: dose: 6.25 mg/kg/injection, schedule: Q01DX009 (ip), vehicle: Klucel (hydroxypropylcellulose) (HPC) 101 % of control | [8] 104 % of control | [9] 109 % of control | [10] 105 % of control | [11] 101 % of control | [12] 104 % of control

COc1ccc(CN2CCc3c(cccc3[N+](=O)[O-])C2)cc1
inactive: dose: 100.0 mg/kg/injection, schedule: Q04DX003 (ip), vehicle: Klucel (hydroxypropylcellulose) (HPC) 98 % of control | dose: 200.0 mg/kg/injection, schedule: Q04DX003 (ip), vehicle: Klucel (hydroxypropylcellulose) (HPC) 103 % of control | dose: 400.0 mg/kg/injection, schedule: Q04DX003 (ip), vehicle: Klucel (hydroxypropylcellulose) (HPC) 96 % of control

NC(=S)N/N=C/c1nc2ccccc2[nH]1
inactive: dose: 25.0 mg/kg/injection, schedule: Q04DX003 (ip), vehicle: saline with Tween-80 100 % of control | dose: 50.0 mg/kg/injection, schedule: Q04DX003 (ip), vehicle: saline with Tween-80 100 % of control | [13] 106 % of control | [14] 91 % of control

CC(=O)OCc1c(COC(C)=O)c(-c2ccc(Cl)c(Cl)c2)n2c1CCC2
inactive: [11] 122 % of control

Cc1c2oc3c(C)ccc(C(=O)NC4C(=O)NC(C(C)C)C(=O)N5CCCC5C(=O)N(C)CC(=O)N(C)C(C(C)C)C(=O)OC4C)c3nc-2c(C(=O)NC2C(=O)NC(C(C)C)C(=O)N3CC(O)CC3C(=O)N(C)CC(=O)N(C)C(C(C)C)C(=O)OC2C)c(N)c1=O (stereo not given) (I: TV[Hyp][Sar][NMeV] / II: TVP[Sar][NMeV]; ester I:1-I:C, II:1-II:C; linker I:N-II:N via Actinocin(1to9); configuration not given here)
inactive: dose: 0.2 mg/kg/injection, schedule: Q01DX009 (ip), vehicle: Klucel (hydroxypropylcellulose) (HPC) 108 % of control
active: dose: 0.1 mg/kg/injection, schedule: Q01DX009 (ip), vehicle: Klucel (hydroxypropylcellulose) (HPC) 221 % of control | dose: 0.2 mg/kg/injection, schedule: Q01DX009 (ip), vehicle: water 151 % of control | dose: 0.4 mg/kg/injection, schedule: Q01DX009 (ip), vehicle: water 186 % of control

O=C1CSC(=S)N1CCCN1CCOCC1
inactive: [2] 104 % of control | [6] 106 % of control | [7] 101 % of control

Nc1ccc2c(c1)C1(CCC2)NC(=O)NC1=O (stereo not given)
inactive: [2] 96 % of control | [6] 95 % of control | [7] 105 % of control

CSC1(SC)CCN(C)C1=O
inactive: [1] 90 % of control | [2] 93 % of control | [6] 92 % of control

C(#Cc1c2ccccc2c(C#Cc2ccccc2)c2c(-c3ccccc3)cccc12)c1ccccc1
inactive: [15] 97 % of control | dose: 100.0 mg/kg/injection, schedule: Q01DX005 (ip), vehicle: saline with Tween-80 87 % of control

CSc1ccc(Cl)cc1NC(=O)N(C)C
inactive: [13] 98 % of control | [14] 98 % of control | dose: 400.0 mg/kg/injection, schedule: Q04DX003 (ip), vehicle: saline with Tween-80 96 % of control

CC([OH2+])CNCCN.CC([OH2+])CNCCN.O=[N+]([O-])[O-].[Cu+2] (stereo not given)
inactive: [16] 113 % of control

CCCCCCCCCCCCOC(=O)c1ccc(OP(=O)(O)OCc2ccccc2)cc1
inactive: [8] 104 % of control | [9] 121 % of control | [10] 103 % of control and 115 % of control

NCCCCCCN1CCN(c2cccc(Cl)c2)CC1
inactive: [16] 103 % of control and 97 % of control | dose: 100.0 mg/kg/injection, schedule: Q01DX009 (ip), vehicle: saline 114 % of control and 98 % of control | dose: 200.0 mg/kg/injection, schedule: Q01DX009 (ip), vehicle: saline 123 % of control

O=C1OC2(CCCCC2)OC(=O)C1=Cc1ccc([N+](=O)[O-])s1
inactive: [13] 114 % of control | [14] 105 % of control

CN(C)C(CCC(=O)O)C(=O)O (stereo not given)
inactive: dose: 50.0 mg/kg/injection, schedule: Q01DX005 (ip), vehicle: saline 102 % of control | dose: 100.0 mg/kg/injection, schedule: Q01DX005 (ip), vehicle: saline 97 % of control | dose: 200.0 mg/kg/injection, schedule: Q01DX005 (ip), vehicle: saline 98 % of control

CS(=O)(=O)CC#N
inactive: dose: 7.5 mg/kg/injection, schedule: Q01DX005 (ip), vehicle: saline 96 % of control | dose: 15.0 mg/kg/injection, schedule: Q01DX005 (ip), vehicle: saline 100 % of control | dose: 30.0 mg/kg/injection, schedule: Q01DX005 (ip), vehicle: saline 95 % of control

N#CC(C(=O)C(=O)Nc1cccc(C(F)(F)F)c1)c1cccc(Cl)c1 (stereo not given)
inactive: [3] 105 % of control | [4] 112 % of control | [5] 103 % of control

O=c1cc2n(c(=O)n1Cc1ccccc1)CCC2
inactive: dose: 12.5 mg/kg/injection, schedule: Q01DX005 (ip), vehicle: saline with Tween-80 97 % of control | dose: 25.0 mg/kg/injection, schedule: Q01DX005 (ip), vehicle: saline with Tween-80 99 % of control | [15] 101 % of control

CCCCCCCCCCCCCC(CCCC)CCCCCCCC (stereo not given)
inactive: dose: 37.5 mg/kg/injection, schedule: Q01DX001 (ip), vehicle: saline sonified 104 % of control | dose: 75.0 mg/kg/injection, schedule: Q01DX001 (ip), vehicle: saline sonified 100 % of control | dose: 150.0 mg/kg/injection, schedule: Q01DX001 (ip), vehicle: saline sonified 100 % of control

CN(C)C(OCCCC(=O)O)C(Cl)(Cl)Cl (stereo not given)
inactive: [10] 113 % of control | [11] 96 % of control | [12] 109 % of control

CCOC(=O)/C=C/c1ccc(C(=O)OCC)[nH]1
inactive: [9] 101 % of control | [10] 100 % of control | [11] 107 % of control | [12] 97 % of control

Source: PubChem BioAssay AID330 (DTP/NCI, 2004)
